Assay results: US10954214B2 (Janssen Pharmaceutica NV, priority 2016, dated 2021)

Tests used:
[1] = system: IL10 secretion by OCI-LY3 ABC-DLBCL cells; assay: Human IL10 Mesoscale assay (OCI-LY3); format: cell-based; conditions: Homo sapiens, 24 h
Procedure: (§1) NFKB signaling regulates the secretion of multiple cytokines, including IL6 and IL10. Secretion of the cytokines IL6 and IL10 by TMD8 or OCI-LY3 ABC-DLBCL cells was measured using a mesoscale assay. Inhibition of NFKB signaling by MALT1 or BTK inhibitors results in a decrease of IL6/10 secretion.
(§2) TMD8 or OCI-LY3 cells were propagated in RPMI-1640 (Sigma Aldrich) supplemented with 10% fetal bovine serum (HyClone), 1 mM sodium pyruvate (Invitrogen), 2 mM L-glutamine (Sigma Aldrich) and 1% PenStrep (Sigma Aldrich). Cell passage number should not exceed 30. Cells should be kept between 0.5-2.5 million cells per mL during culturing and cells should be supplemented every 2-3 days with fresh 50 μM beta-mercaptoenthanol. No beta-mercaptoethanol was used during the mesoscale assay.
(§3) For the Mesoscale assay, 100,000 TMD8 or OCI-LY3 cells were seeded per well into black-colored 96-well plates with clear bottom (Corning #3904) and test compounds were added in 9 dilution steps (1:2) ranging from 15 μM to 58.6 nM (final DMSO concentration 0.3%). DMSO control wells were used to determine the maximum signal (High Control (HC)). Treatment with the BTK inhibitor RN486 in a dose range from 30 nM to 131 pM (9 dilutions of 1:2) served as a positive control for NFKB pathway inhibition and was used to determine the maximum inhibition (Low Control (LC)). Compounds and cells were incubated for 24 h at 37° C. and 5% CO2 (assay volume is 150 μL). After 24 h of incubation 50 μL of the supernatant was transferred to a MSD plate (V-Plex Proinflammation Panel 1 (human) kit, Mesoscale (MSD)) and incubated for 2 h with vigorous shaking (600 rpm) at room temperature. Following incubation, plates were washed 3× with PBS+0.05% Tween-20 and 25 μL detection antibody solution (IL6 & IL10 antibodies in diluent 3 (MSD)) was added per well followed by 2 h of incubation with vigorous shaking (600 rpm) at room temperature. After 3× washes with PBS+0.05% Tween-20, plates were incubated with 150 μL 2× Read Buffer T and read on SECTOR imager.

[2] = system: IL6 secretion by OCI-LY3 ABC-DLBCL cells; assay: Human IL6 Mesoscale assay (OCI-LY3); format: cell-based; conditions: Homo sapiens, 24 h
Procedure: as §1, §2, §3

[3] = target: full-length MALT1 protein (Strep-MALT1(1-824)-His) (Homo sapiens (Human), UniProt Q9UDY8); assay: MALT1 Biochemical Protease Assay (Ac-LRSR-AMC substrate); conditions: 10 nM FL MALT1, 200 μM Ac-LRSR-AMC, 4 h at RT; read-out: MALT1_Biochemical activity (Ac-LRSR-amc) IC50
full-length MALT1 protein (Strep-MALT1(1-824)-His), sequence (Q9UDY8 whole entry): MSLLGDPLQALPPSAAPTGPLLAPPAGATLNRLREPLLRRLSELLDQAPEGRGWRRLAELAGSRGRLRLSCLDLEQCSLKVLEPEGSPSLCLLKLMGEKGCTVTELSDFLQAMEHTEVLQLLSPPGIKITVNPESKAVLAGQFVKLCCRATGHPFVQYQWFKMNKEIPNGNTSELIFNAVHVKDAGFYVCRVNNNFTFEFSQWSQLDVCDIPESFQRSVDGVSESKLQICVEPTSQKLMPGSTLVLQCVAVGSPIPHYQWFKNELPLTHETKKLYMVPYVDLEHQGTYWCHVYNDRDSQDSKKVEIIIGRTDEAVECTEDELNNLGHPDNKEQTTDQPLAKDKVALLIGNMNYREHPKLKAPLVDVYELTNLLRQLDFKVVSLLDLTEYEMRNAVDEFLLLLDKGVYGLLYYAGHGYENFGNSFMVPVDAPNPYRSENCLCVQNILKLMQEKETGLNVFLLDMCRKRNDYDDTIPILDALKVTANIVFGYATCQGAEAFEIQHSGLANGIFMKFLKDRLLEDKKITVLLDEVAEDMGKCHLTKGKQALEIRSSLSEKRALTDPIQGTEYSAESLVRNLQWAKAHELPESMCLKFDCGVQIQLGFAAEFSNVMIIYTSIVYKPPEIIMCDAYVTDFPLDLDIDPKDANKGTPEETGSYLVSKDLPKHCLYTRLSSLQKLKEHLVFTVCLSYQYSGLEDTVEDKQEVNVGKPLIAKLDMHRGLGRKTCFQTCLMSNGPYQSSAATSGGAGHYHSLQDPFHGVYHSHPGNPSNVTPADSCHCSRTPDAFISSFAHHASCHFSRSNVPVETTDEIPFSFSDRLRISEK
In short: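 Fluorescence from AMC release off the quenched LRSR substrate was read after a 4 h reaction at RT. Values were normalised to no-enzyme and uninhibited controls and fitted for IC50 and Hill coefficient.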

[4] = system: IL10 secretion by TMD8 ABC-DLBCL cells; assay: Human IL10 Mesoscale assay (TMD-8); format: cell-based; conditions: Homo sapiens, TMD8; TMD-8 cells, 24 h
In short: (§4)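 Read-out: MSD electrochemiluminescence of IL6/IL10 in supernatants. Cells (100,000/well, no beta-mercaptoethanol) were exposed to compounds at 15 μM down to 58.6 nM, 1:2 dilutions, for 24 h at 37° C, 5% CO2. Normalised between DMSO (high) and RN486 (low) controls.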

[5] = system: IL6 secretion by TMD8 ABC-DLBCL cells; assay: Human IL6 Mesoscale assay (TMD-8); format: cell-based; conditions: Homo sapiens, TMD8; TMD-8 cells, 24 h
In short: as §4

IC50 [1]	IC50 [2]	IC50 [3]	IC50 [4]	IC50 [5]	Compound
339 nM	525 nM	4170 nM	–	–	Cc1cc(NC(=O)c2cnn(-c3cccc4scnc34)c2C(F)(F)F)c(C)nc1-n1nccn1 [Cpd 300, 1-(benzo[d]thiazol-4-yl)-N-(2,5-dimethyl-6-(2H-1,2,3-triazol-2-yl)pyridin-3-yl)-5-(trifluoromethyl)-1H-pyrazole-4-carboxamide]
389 nM	479 nM	25 nM	–	–	Cc1cnn(-c2nc(C)c(NC(=O)c3cnn(-c4cnc(N)c5ccccc45)c3C(F)(F)F)cc2Cl)n1 [Cpd 341, 1-(1-aminoisoquinolin-4-yl)-N-(5-chloro-2-methyl-6-(4-methyl-2H-1,2,3-triazol-2-yl)pyridin-3-yl)-5-(trifluoromethyl)-1H-pyrazole-4-carboxamide]
95 nM	98 nM	2290 nM	–	–	O=C(Nc1cnc(-n2nccn2)c(Cl)c1)c1cnn(-c2c[n+]([O-])cc3sccc23)c1C(F)(F)F [Cpd 409, 4-(4-((5-chloro-6-(2H-1,2,3-triazol-2-yl)pyridin-3-yl)carbamoyl)-5-(trifluoromethyl)-1H-pyrazol-1-yl)thieno[2,3-c]pyridine 6-oxide]
93 nM	186 nM	79 nM	–	–	C[C@H](O)c1nccc2c(-n3ncc(C(=O)Nc4cnc(-n5nccn5)c(Cl)c4)c3C(F)(F)F)cccc12 (single isomer, unassigned) [Cpd 445, (*S)—N-(5-chloro-6-(2H-1,2,3-triazol-2-yl)pyridin-3-yl)-1-(1-(1-hydroxyethyl)isoquinolin-5-yl)-5-(trifluoromethyl)-1H-pyrazole-4-carboxamide]
174 nM	288 nM	214 nM	–	–	Cc1ncc(-n2ncc(C(=O)Nc3cnc(-n4nccn4)c(Cl)c3)c2C(F)(F)F)c2ccsc12 [Cpd 434, N-(5-chloro-6-(2H-1,2,3-triazol-2-yl)pyridin-3-yl)-1-(7-methylthieno[2,3-c]pyridin-4-yl)-5-(trifluoromethyl)-1H-pyrazole-4-carboxamide]
427 nM	589 nM	170 nM	–	–	Cc1nc(-n2nccn2)c(Cl)cc1NC(=O)c1cnn(-c2cnc(N3CC(O)C3)c3sccc23)c1C(F)(F)F [Cpd 433, N-(5-chloro-2-methyl-6-(2H-1,2,3-triazol-2-yl)pyridin-3-yl)-1-(7-(3-hydroxyazetidin-1-yl)thieno[2,3-c]pyridin-4-yl)-5-(trifluoromethyl)-1H-pyrazole-4-carboxamide]
–	–	288 nM	380 nM	> 1510 nM	N#Cc1ccc2c(-n3ncc(C(=O)Nc4cnc(-n5nccn5)c(Cl)c4)c3C(F)(F)F)cccc2n1 [Cpd 413, N-(5-chloro-6-(2H-1,2,3-triazol-2-yl)pyridin-3-yl)-1-(2-cyanoquinolin-5-yl)-5-(trifluoromethyl)-1H-pyrazole-4-carboxamide]
–	–	60 nM	56 nM	98 nM	O=C(Nc1cnc(-n2nccn2)c(Cl)c1)c1cnn(-c2cnc(C(F)F)c3sccc23)c1C(F)(F)F [Cpd 398, N-(5-chloro-6-(2H-1,2,3-triazol-2-yl)pyridin-3-yl)-1-(7-(difluoromethyl)thieno[2,3-c]pyridin-4-yl)-5-(trifluoromethyl)-1H-pyrazole-4-carboxamide]

Continued, compound first:

Compound	IC50 [1]	IC50 [2]	IC50 [3]	IC50 [4]	IC50 [5]
Cc1nc(-n2nccn2)c(Cl)cc1NC(=O)c1cnn(-c2cccc3scnc23)c1C(F)(F)F [Cpd 252, 1-(benzo[d]thiazol-4-yl)-N-(5-chloro-2-methyl-6-(2H-1,2,3-triazol-2-yl)pyridin-3-yl)-5-(trifluoromethyl)-1H-pyrazole-4-carboxamide]	123 nM	158 nM	282 nM	–	–
COC(=O)c1cnn(-c2ccc(NC(=O)c3cnn(-c4cccc5ncccc45)c3C(F)(F)F)cc2Cl)n1 [Cpd 256, methyl 2-(2-chloro-4-(1-(quinolin-5-yl)-5-(trifluoromethyl)-1H-pyrazole-4-carboxamido)phenyl)-2H-1,2,3-triazole-4-carboxylate]	240 nM	257 nM	240 nM	–	–
O=C(Nc1cnc(-n2nc3cccnc3n2)c(Cl)c1)c1cnn(-c2cccc3ncccc23)c1C(F)(F)F [Cpd 164, N-(6-(2H-[1,2,3]triazolo[4,5-b]pyridin-2-yl)-5-chloropyridin-3-yl)-1-(quinolin-5-yl)-5-(trifluoromethyl)-1H-pyrazole-4-carboxamide]	–	1660 nM	282 nM	–	–
Cc1cn2c(-n3ncc(C(=O)Nc4cnc(-n5nccn5)c(Cl)c4)c3C(F)(F)F)cccc2n1 [Cpd 199, N-(5-chloro-6-(2H-1,2,3-triazol-2-yl)pyridin-3-yl)-1-(2-methylimidazo[1,2-a]pyridin-5-yl)-5-(trifluoromethyl)-1H-pyrazole-4-carboxamide]	–	295 nM	110 nM	–	–
Cc1cc(NC(=O)c2cnn(-c3cccc4ncccc34)c2C(F)(F)F)cnc1-n1ccn(C)c1=O [Cpd 218, N-(5-methyl-6-(3-methyl-2-oxo-2,3-dihydro-1H-imidazol-1-yl)pyridin-3-yl)-1-(quinolin-5-yl)-5-(trifluoromethyl)-1H-pyrazole-4-carboxamide]	–	–	3470 nM	87 nM	174 nM
Cc1cc(NC(=O)c2cnn(-c3cccc4ncccc34)c2C(F)(F)F)cnc1-c1nnnn1C [Cpd 240]	–	–	631 nM	135 nM	398 nM
N#Cc1cc(NC(=O)c2cnn(-c3cccc4ncccc34)c2C(F)(F)F)ccc1C(=O)O [Cpd 237, 2-cyano-4-(1-(quinolin-5-yl)-5-(trifluoromethyl)-1H-pyrazole-4-carboxamido)benzoic acid]	–	–	676 nM	182 nM	275 nM
N#Cc1cc(NC(=O)c2cnn(-c3nncc4ccccc34)c2C(F)(F)F)cnc1-n1nccn1 [Cpd 102, N-(5-cyano-6-(2H-1,2,3-triazol-2-yl)pyridin-3-yl)-1-(phthalazin-1-yl)-5-(trifluoromethyl)-1H-pyrazole-4-carboxamide]	–	–	42 nM	186 nM	110 nM
N#Cc1cc(NC(=O)c2cnn(-c3ncc(F)c4ccccc34)c2C(F)(F)F)cnc1-n1nccn1 [Cpd 263, N-(5-cyano-6-(2H-1,2,3-triazol-2-yl)pyridin-3-yl)-1-(4-fluoroisoquinolin-1-yl)-5-(trifluoromethyl)-1H-pyrazole-4-carboxamide]	–	–	191 nM	> 302 nM	> 302 nM
COC(=O)c1cc(-c2ncc(NC(=O)c3cnn(-c4cccc5ncccc45)c3C(F)(F)F)cc2C#N)nn1C [Cpd 267, methyl 3-(3-cyano-5-(1-(quinolin-5-yl)-5-(trifluoromethyl)-1H-pyrazole-4-carboxamido)pyridin-2-yl)-1-methyl-1H-pyrazole-5-carboxylate]	–	–	155 nM	56 nM	35 nM
O=C(Nc1cnc(-c2ncc[nH]2)c(Cl)c1)c1cnn(-c2cncc3ccccc23)c1C(F)(F)F [Cpd 104, N-(5-chloro-6-(1H-imidazol-2-yl)pyridin-3-yl)-1-(isoquinolin-4-yl)-5-(trifluoromethyl)-1H-pyrazole-4-carboxamide]	–	–	204 nM	> 15000 nM	> 15000 nM
N#Cc1cc(NC(=O)c2cnn(-c3cccc4ncccc34)c2C(F)(F)F)cnc1-n1cccc1 [Cpd 280, N-(5-cyano-6-(1H-pyrrol-1-yl)pyridin-3-yl)-1-(quinolin-5-yl)-5-(trifluoromethyl)-1H-pyrazole-4-carboxamide]	–	–	126 nM	2400 nM	5500 nM
